The values below come from patent publication US7897628B2, “Aryl carbonyl derivatives as therapeutic agents” (Novo Nordisk A/S, priority 2002, dated 2011).

The subject of this series is glucokinase. Briefly: Liver specificity: activity in isolated hepatocytes (Glucokinase Activity Assay (II)) compared to Ins-1 cells (Glucokinase Activity Assay (III)). The format is cell-based. Conditions: Glucokinase Activity Assay (II) (isolated hepatocytes) compared to Glucokinase Activity Assay (III) (Ins-1 cells). From the text: For the purpose of describing this invention, the potential liver selectivity of a glucokinase activator may be assayed by comparison of the results obtained in response to the glucokinase activator in isolated hepatocytes and the results obtained in response to the glucokinase activator in Ins-1 cells. […] The activity of the glucokinase activator in Glucokinase Activity Assay (II) (hepatocytes) may for instance be at least 1.1 fold higher, such as at least 1.2 fold higher, for instance at least 1.3 fold higher, such as at least 1.4 fold higher, for instance 1.5 fold higher, such as at least 1.6 fold higher, for instance at least 1.7 fold higher, such as at least 1.8 fold higher, for instance at least 1.9 fold higher, such as at least 2.0 fold higher, for instance at least a 3.0 fold higher, such as at least a 4.0 fold higher, for instance at least 5.0 fold higher, such as at least 10 fold higher than the activity of the glucokinase activator in Glucokinase Activity Assay (III) (Ins-1 cells). Alternatively, the glucokinase activator may show no activity in the Ins-1 cells measured as described in the Glucokinase Activity Assay (III), while showing a significant activity in hepatocytes measured as described in the Glucokinase Activity Assay (II).
Regarding `Cc1ccc(NC(=O)Nc2nc(CC(=O)O)cs2)c(C(=O)C2CCCC2)c1` [{2-[3-(2-cyclopentanecarbonyl-4-methyl-phenyl)-ureido]-thiazol-4-yl}-acetic acid], the “liver specific glucokinase activator (significantly higher activity in isolated hepatocytes than in Ins-1 cells)” value is recorded as “liver specific glucokinase activators”.

For the molecule `COc1cccc(F)c1Oc1ccc(F)cc1NC(=O)Nc1nc(CC(=O)NCCN2CCOCC2)cs1` [2-(2-{3-[5-fluoro-2-(2-fluoro-6-methoxyphenoxy)phenyl]ureido}thiazol-4-yl)-N-(2-morpholin-4-ylethyl)acetamide], the “liver specific glucokinase activator (significantly higher activity in isolated hepatocytes than in Ins-1 cells)” value is on record as “liver specific glucokinase activators”.

On to `CCOC(=O)Cc1csc(NC(=O)Nc2cc(F)ccc2Oc2cccc(OC)c2OC)n1` [(2-{3-[2-(2,3-dimethoxyphenoxy)-5-fluorophenyl]ureido}thiazol-4-yl)acetic acid ethyl ester], for which the “liver specific glucokinase activator (significantly higher activity in isolated hepatocytes than in Ins-1 cells)” value is reported as “liver specific glucokinase activators”.

Take `Cc1ccc(NC(=O)Nc2nc(CC(=O)O)cs2)c(OCC(C)C)c1` [{2-[3-(4-methyl-2-[2-methylpropoxy]phenyl)-ureido]-thiazol-4-yl}-acetic acid]: the “liver specific glucokinase activator (significantly higher activity in isolated hepatocytes than in Ins-1 cells)” value is “liver specific glucokinase activators”.

In the case of `COc1cccc(F)c1Oc1ccc(F)cc1NC(=O)Nc1nc(CC(=O)NCC(=O)O)cs1` [[2-(2-{3-[5-fluoro-2-(2-fluoro-6-methoxyphenoxy)phenyl]ureido}thiazol-4-yl)acetylamino]acetic acid], the “liver specific glucokinase activator (significantly higher activity in isolated hepatocytes than in Ins-1 cells)” value is recorded as “liver specific glucokinase activators”.

Turning to `CCOC(=O)c1csc(NC(=O)Nc2cc(F)ccc2Oc2cccc(OC)c2OC)n1` [2-{3-[2-(2,3-dimethoxyphenoxy)-5-fluorophenyl]ureido}thiazole-4-carboxylic acid ethyl ester], the “liver specific glucokinase activator (significantly higher activity in isolated hepatocytes than in Ins-1 cells)” value was “liver specific glucokinase activators”.

Turning to `COc1cccc(Oc2ccc(F)cc2NC(=O)Nc2nc(C(=O)O)cs2)c1OC` [2-{3-[2-(2,3-dimethoxyphenoxy)-5-fluorophenyl]ureido}thiazole-4-carboxylic acid], the “liver specific glucokinase activator (significantly higher activity in isolated hepatocytes than in Ins-1 cells)” value is recorded as “liver specific glucokinase activators”.

As to `COc1cccc(F)c1Oc1ccc(F)cc1NC(=O)Nc1nc(CC(=O)O)cs1` [(2-{3-[5-fluoro-2-(2-fluoro-6-methoxyphenoxy)phenyl]ureido}thiazol-4-yl)acetic acid], the “liver specific glucokinase activator (significantly higher activity in isolated hepatocytes than in Ins-1 cells)” value was “liver specific glucokinase activators”.
